Data set [1] deals with T1, Oxysterols receptor LXR-beta (Homo sapiens, UniProt P55055).
T1 sequence (P55055 whole entry): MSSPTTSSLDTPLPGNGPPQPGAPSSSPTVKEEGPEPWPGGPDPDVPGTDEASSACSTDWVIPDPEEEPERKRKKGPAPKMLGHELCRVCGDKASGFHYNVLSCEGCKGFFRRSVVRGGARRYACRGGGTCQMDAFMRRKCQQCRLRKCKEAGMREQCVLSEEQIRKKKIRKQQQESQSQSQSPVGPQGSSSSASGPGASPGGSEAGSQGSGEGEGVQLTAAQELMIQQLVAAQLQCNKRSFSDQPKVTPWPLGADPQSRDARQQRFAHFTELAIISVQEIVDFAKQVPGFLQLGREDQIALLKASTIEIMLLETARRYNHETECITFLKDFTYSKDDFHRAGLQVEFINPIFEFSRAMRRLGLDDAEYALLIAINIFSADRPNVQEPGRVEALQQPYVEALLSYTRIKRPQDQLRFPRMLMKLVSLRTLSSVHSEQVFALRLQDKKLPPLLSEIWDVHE
Put plainly: Agonist activity at human LXR-beta expressed in HEK293 cells after 16 hrs by luciferase reporter gene assay. A general note: In a reporter assay the amount or activity of a reporter protein is the signal.

In data set [2] the target is T1, Oxysterols receptor LXR-beta. In words: Antagonist activity at human LXR-beta expressed in HEK293 cells assessed as inhibition of T0901317-induced effect after 16 hrs by luciferase reporter gene assay. Format: cell-based.
Data set [3] concerns the target T2, Oxysterols receptor LXR-alpha (Homo sapiens, UniProt Q13133).
T2 sequence (Q13133 whole entry): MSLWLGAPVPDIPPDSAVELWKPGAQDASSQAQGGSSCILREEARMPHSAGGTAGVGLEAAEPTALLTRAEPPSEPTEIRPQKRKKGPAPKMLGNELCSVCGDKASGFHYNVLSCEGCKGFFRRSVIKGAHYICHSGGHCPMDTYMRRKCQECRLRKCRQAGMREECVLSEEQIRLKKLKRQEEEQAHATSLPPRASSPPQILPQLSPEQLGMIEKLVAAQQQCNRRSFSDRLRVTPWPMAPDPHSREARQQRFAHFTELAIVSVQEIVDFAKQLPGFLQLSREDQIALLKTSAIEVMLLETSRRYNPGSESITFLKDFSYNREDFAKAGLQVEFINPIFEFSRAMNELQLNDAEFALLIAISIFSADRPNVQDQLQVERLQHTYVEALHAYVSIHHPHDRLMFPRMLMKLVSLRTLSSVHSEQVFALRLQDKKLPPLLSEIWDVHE
Put plainly: Antagonist activity at human LXR-alpha expressed in HEK293 cells assessed as inhibition of T0901317-induced effect after 16 hrs by luciferase reporter gene assay. Format: cell-based.

In data set [4] the target is T2, Oxysterols receptor LXR-alpha. Put plainly: Agonist activity at human LXR-alpha expressed in HEK293 cells after 16 hrs by luciferase reporter gene assay.
A further data set deals with HEK293. In words: Cytotoxicity against HEK293 cells. The conditions noted are these: human. Format: cell-based.
Data set [5] deals with T3, Nuclear receptor ROR-alpha (Homo sapiens, UniProt P35398).
T3 sequence (P35398 whole entry): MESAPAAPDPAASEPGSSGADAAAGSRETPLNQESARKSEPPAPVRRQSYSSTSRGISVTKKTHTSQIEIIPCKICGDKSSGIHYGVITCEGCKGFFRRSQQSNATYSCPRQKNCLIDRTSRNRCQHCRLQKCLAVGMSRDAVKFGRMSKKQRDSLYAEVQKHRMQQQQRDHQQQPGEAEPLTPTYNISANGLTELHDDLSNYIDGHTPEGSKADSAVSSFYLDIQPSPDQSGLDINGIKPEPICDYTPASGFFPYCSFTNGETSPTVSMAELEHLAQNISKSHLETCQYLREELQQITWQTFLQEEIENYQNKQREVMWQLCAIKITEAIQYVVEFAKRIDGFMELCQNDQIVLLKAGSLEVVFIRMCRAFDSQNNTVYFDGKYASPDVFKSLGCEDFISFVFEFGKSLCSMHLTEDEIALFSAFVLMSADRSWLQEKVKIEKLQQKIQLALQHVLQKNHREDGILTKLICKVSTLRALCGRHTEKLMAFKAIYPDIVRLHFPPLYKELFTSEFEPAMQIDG
Put plainly: Inverse agonist activity at human ROR-alpha1 expressed in HEK293 cells after 16 hrs by luciferase reporter gene assay. Format: cell-based.

Data set [6] deals with T4, Nuclear receptor ROR-gamma (Homo sapiens, UniProt P51449).
T4 sequence (P51449 whole entry): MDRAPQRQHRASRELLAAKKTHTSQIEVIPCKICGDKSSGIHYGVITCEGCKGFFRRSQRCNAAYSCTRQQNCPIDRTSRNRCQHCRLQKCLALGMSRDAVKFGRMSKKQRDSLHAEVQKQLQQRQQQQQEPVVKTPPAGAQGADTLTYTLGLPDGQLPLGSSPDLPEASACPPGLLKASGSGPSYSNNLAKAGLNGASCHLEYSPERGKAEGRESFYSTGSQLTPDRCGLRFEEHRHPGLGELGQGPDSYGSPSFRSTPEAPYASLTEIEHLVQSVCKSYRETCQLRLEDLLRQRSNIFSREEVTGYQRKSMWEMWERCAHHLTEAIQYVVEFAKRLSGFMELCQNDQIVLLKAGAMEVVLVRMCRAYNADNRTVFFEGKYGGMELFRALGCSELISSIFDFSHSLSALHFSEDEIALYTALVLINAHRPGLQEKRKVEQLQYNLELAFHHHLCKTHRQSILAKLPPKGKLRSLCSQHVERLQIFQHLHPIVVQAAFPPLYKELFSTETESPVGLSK
Put plainly: Inverse agonist activity at human ROR-gamma1 expressed in HEK293 cells after 16 hrs by luciferase reporter gene assay. Format: cell-based.

For data set [7], the target named is T5, Nuclear receptor ROR-beta (Homo sapiens, UniProt Q92753).
T5 sequence (Q92753 whole entry): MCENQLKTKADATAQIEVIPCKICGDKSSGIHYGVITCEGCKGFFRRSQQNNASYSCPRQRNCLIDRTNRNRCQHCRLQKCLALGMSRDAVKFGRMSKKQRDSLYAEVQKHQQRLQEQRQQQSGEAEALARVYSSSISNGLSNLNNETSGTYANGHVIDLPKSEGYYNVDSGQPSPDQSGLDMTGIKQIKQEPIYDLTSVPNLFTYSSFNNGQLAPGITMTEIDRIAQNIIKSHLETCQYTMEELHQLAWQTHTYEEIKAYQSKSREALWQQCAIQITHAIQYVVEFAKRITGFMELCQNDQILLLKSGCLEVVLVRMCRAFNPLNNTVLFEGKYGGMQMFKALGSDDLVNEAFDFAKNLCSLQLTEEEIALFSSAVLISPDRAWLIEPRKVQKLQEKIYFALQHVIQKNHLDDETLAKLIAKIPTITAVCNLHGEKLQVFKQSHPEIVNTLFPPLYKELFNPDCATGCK
Put plainly: Inverse agonist activity at human ROR-beta expressed in HEK293 cells after 16 hrs by luciferase reporter gene assay. Format: cell-based.

Data set [8] has as its target T2, Oxysterols receptor LXR-alpha. In words: Antagonist activity at human LXR-alpha expressed in HEK293 cells after 16 hrs by luciferase reporter gene assay. Format: cell-based.
For data set [9], the target named is T1, Oxysterols receptor LXR-beta. In words: Antagonist activity at human LXR-beta expressed in HEK293 cells after 16 hrs by luciferase reporter gene assay. Format: cell-based.

Molecules are shown by their SMILES. A value given as a limit tells only on which side of the number the result lay.

22 molecules from ChEMBL document CHEMBL3259582, “Structure-activity relationship-guided development of retinoic acid receptor-related orphan receptor gamma (RORγ)-selective inverse agonists with a phenanthridin-6(5H)-one skeleton from a liver X receptor ligand” (Bioorg Med Chem, 2014) can be followed below.

The IC50 is the midpoint of a concentration-inhibition curve.

With `CCCCn1c(=O)c2ccc(Cl)cc2c2cc(C(O)(C(F)(F)F)C(F)(F)F)ccc21`, the EC50 result in data set [1] and in data set [4] was “Not Active” each time. The IC50 in data set [2] (read-out: IC50) was 0.68 µM; in data set [3] (read-out: IC50), above 3 µM.
With `CCCCn1c(=O)c2cc(OC)ccc2c2cc(C(O)(C(F)(F)F)C(F)(F)F)ccc21`, the Activity entry with HEK293 is recorded as “Toxic”.
`CCCCn1c(=O)c2ccccc2c2cc(C(O)(C(F)(F)F)C(F)(F)F)cc(OC)c21`: the IC50 in [5] (read-out: IC50), in data set [6] (read-out: IC50) and in data set [7] (read-out: IC50) was above 10 µM each time.
As for `CCCCn1c(=O)c2ccccc2c2cc(C)ccc21`, the half-inhibitory concentration (IC50) in [5] (read-out: IC50) was 17.6 µM; in [6] (read-out: IC50), 16.8 µM; in data set [7] (read-out: IC50), 17.1 µM.
For `CCCCn1c(=O)c2ccccc2c2cc(C(O)(C(F)(F)F)C(F)(F)F)c(OC)cc21` the same measures were 7.8 µM, 9.2 µM and 10.9 µM.
For the molecule `Cn1c(=O)c2ccccc2c2cc(C(O)(C(F)(F)F)C(F)(F)F)ccc21`, the IC50 in data set [5] (read-out: IC50), in data set [6] (read-out: IC50) and in [7] (read-out: IC50) was above 20 µM in each case.
As for `CCCCCCCCCn1c(=O)c2ccccc2c2cc(C(O)(C(F)(F)F)C(F)(F)F)ccc21`, the IC50 in data set [5] (read-out: IC50), in [6] (read-out: IC50) and in [7] (read-out: IC50) was above 20 µM throughout.
`O=S(=O)(c1ccccc1)N(CC(F)(F)F)c1ccc(C(O)(C(F)(F)F)C(F)(F)F)cc1` [T091317]: the IC50 result in [8], in data set [7] (hek293) and in data set [9] was “Not Active” throughout.
As to `CCCCn1c(=O)c2ccccc2c2ccccc21`, the IC50 turned out to be 10.2 µM in data set [5] (read-out: IC50), 14.5 µM in data set [6] (read-out: IC50) and 13.4 µM in [7] (read-out: IC50).
In the same order, the values of `CCCCn1c(=O)c2cccc(OC)c2c2cc(C(O)(C(F)(F)F)C(F)(F)F)ccc21` are 9.1 µM, 5.7 µM and 7.5 µM.
As to `CCCCCCCCCCCCc1ccc2c(c1)c1ccccc1c(=O)n2CCCC`, the IC50 entry in [5] (hek293), in data set [6] (hek293) and in data set [7] (hek293) was “Not Active” each time.
Regarding `CC(=O)Nc1nc(C)c(S(=O)(=O)Nc2ccc(C(O)(C(F)(F)F)C(F)(F)F)cc2)s1`, the EC50 result in data set [1] and in data set [4] was “Not Active” in each case. Besides, the IC50 result in data set [2] (hek293) and in [3] (hek293) was “Not Active” in each case.
Consider `CCCCn1c(=O)c2ccccc2c2cc(CO)ccc21`, for which the IC50 in data set [5] (read-out: IC50), in data set [6] (read-out: IC50) and in [7] (read-out: IC50) was above 20 µM in each case.
For the molecule `CCn1c(=O)c2ccccc2c2cc(C(O)(C(F)(F)F)C(F)(F)F)ccc21`, the IC50 in [5] (read-out: IC50), in data set [6] (read-out: IC50) and in [7] (read-out: IC50) was above 20 µM in each case.
On to `CCCCn1c(=O)c2ccccc2c2cc(C(O)(C(F)(F)F)C(F)(F)F)ccc21`, for which the IC50 in data set [5] (read-out: IC50) was 9.8 µM; in data set [6] (read-out: IC50), 3.9 µM; in data set [7] (read-out: IC50) it was 6.5 µM.
In the same order, the values of `CCCCn1c(=O)c2ccc(OC)cc2c2cc(C(O)(C(F)(F)F)C(F)(F)F)ccc21` are 5.3 µM, 1.1 µM and 7.7 µM.
For `CCCCCCn1c(=O)c2ccccc2c2cc(C(O)(C(F)(F)F)C(F)(F)F)ccc21` the same measures were 7.6 µM, 4.7 µM and 5.4 µM.
For `O=c1[nH]c2ccc(C(O)(C(F)(F)F)C(F)(F)F)cc2c2ccccc12` the same measures were above 20 µM, above 20 µM and above 20 µM.
With `CCCCn1c(=O)c2c(OC)cccc2c2cc(C(O)(C(F)(F)F)C(F)(F)F)ccc21`, the Activity result in the data set on HEK293 was “Toxic”.
On to `CCCn1c(=O)c2ccccc2c2cc(C(O)(C(F)(F)F)C(F)(F)F)ccc21`, for which the IC50 in data set [5] (read-out: IC50) came to 10.8 µM; in [6] (read-out: IC50) it was 4.2 µM; in [7] (read-out: IC50) it was 8.2 µM.
For `CCCCn1c(=O)c2ccccc2c2cc(CC)ccc21` the same measures were 9 µM, 9.2 µM and 7.9 µM.
In the same order, the values of `CCCCn1c(=O)c2ccccc2c2cc(C(C)(C)C)ccc21` are 11.8 µM, 10.4 µM and 12.8 µM.
